This is an account of results in PMC3375280 (PLoS ONE, 2012).

In general, Kd refers to the constant that tells how readily two partners part at equilibrium.

Where “and” joins values, the source holds several entries; their conditions need not be identical. Equal entries are not always repeated.

The target of test [1] is T1, AT1 wild-type (WT) receptor (Rattus norvegicus, UniProt P25095).
T1 construct: expressed in transfected cells; host or cells: COS1
T1 sequence (P25095 1-359): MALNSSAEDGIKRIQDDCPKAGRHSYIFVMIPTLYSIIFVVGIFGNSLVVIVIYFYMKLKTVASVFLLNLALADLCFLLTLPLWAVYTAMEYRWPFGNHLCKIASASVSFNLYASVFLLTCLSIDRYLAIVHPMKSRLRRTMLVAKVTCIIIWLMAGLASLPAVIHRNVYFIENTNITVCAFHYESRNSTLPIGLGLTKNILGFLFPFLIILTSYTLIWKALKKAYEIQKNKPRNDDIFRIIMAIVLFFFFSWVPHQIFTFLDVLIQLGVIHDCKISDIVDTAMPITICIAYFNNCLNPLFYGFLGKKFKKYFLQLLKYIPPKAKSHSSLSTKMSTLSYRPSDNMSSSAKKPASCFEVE
The test is described as follows: 125I-[Sar1,Ile8]AngII competition binding, wild-type receptor. To be noted: WT; for Kd: COS1 cell membranes, 100 pM 125I-[Sar1,Ile8]AngII, 1 h 22°C, read-out: Binding affinity (Kd); for Kd ratio relative to olmesartan (in parentheses): compound Kd / olmesartan Kd. As to the method: The Kd and Bmax values of receptor binding were determined by ^125I-[Sar^1, Ile^8] […] Membranes expressing the WT or mutant AT1 receptors were incubated with 100 pM ^125I-[Sar^1, Ile^8] […] The binding reaction was terminated by filtering the incubation mixture through Whatman GF/C glass filters, and the residues were extensively washed further with binding buffer. The bound ligand fraction was determined from the counts per minute (cpm) remaining on the membrane. Binding kinetics values were determined as previously described.

Test [2] has as its target T2, wild-type (WT) AT1 receptor (Rattus norvegicus, UniProt P25095).
T2 sequence (P25095 1-359): T1 sequence (P25095 1-359)
As to the kind of experiment: inositol phosphate (IP) production in COS1 cells expressing WT AT1 receptor. The following applies: 1 µM compound, vs basal IP production.
Protocol: The test compounds were added 1 h before the measurement of IP.
The WT and mutant AT1 receptors were transiently transfected into COS1 cells using Lipofectamine 2000 liposomal reagent (Roche Applied Science) according to the manufacturer’s instructions.
Cells expressing the WT and mutant AT1 receptors were incubated for 30 minutes at 22°C with or without the indicated concentrations of ARBs. The cells were washed-out once with the use of excess cold HBSS, and used in an IP production study. Total soluble IP was measured by the perchloric acid extraction method, as described previously [16].

For test [3], the system named is AT1 receptor. To be noted: Cys76 accessible; cited from earlier work.

`CCCc1nc(C(C)C)c(C(N)=O)n1Cc1ccc(-c2cc(Cc3ccc(O)cc3)ccc2-c2nnn[nH]2)cc1` [R795100]: the Kd in test [1] was found to be 179 ± 84 nM. Moreover, the “Pharmacological behaviour toward IP production (agonism / neutral antagonism / inverse agonism)” value in test [2] is “agonism”.

For the molecule `CCCc1nc(C(C)(C)O)c(C(=O)O)n1Cc1ccc(-c2cc(Cc3ccc(O)cc3)ccc2-c2nnn[nH]2)cc1` [R781253], in test [1], the Kd was 21 ± 10 nM and the “Kd ratio relative to olmesartan (in parentheses)” value (from here on “Kd ratio relative to olmesartan”) came out at 9.1 fold. The “Pharmacological behaviour toward IP production (agonism / neutral antagonism / inverse agonism)” value in test [2] is given as “inverse agonism”.

For the molecule `CCCc1nc(C(C)(C)O)c(C(N)=O)n1Cc1ccc(-c2cc(Cc3ccccc3)ccc2-c2nnn[nH]2)cc1` [R801832], in test [1], the Kd came to 276 ± 22 nM; the “Kd ratio relative to olmesartan” value was 100 fold and 120 fold. In addition, the “Pharmacological behaviour toward IP production (agonism / neutral antagonism / inverse agonism)” value in test [2] is reported as “agonism”.

As to `CCCc1nc(C(C)(C)O)c(C(=O)O)n1Cc1ccc(-c2cc(Cc3ccc(OCOC)cc3)ccc2-c2nnn[nH]2)cc1` [R781254], in test [1], the Kd stood at 396 ± 80 nM and the “Kd ratio relative to olmesartan” value is reported as 172 fold. The “Pharmacological behaviour toward IP production (agonism / neutral antagonism / inverse agonism)” value in test [2] is recorded as “inverse agonism”.

As to `CCCc1nc(C(C)(C)O)c(C(=O)O)n1Cc1ccc(-c2cc(Cc3cccc(O)c3)ccc2-c2nnn[nH]2)cc1` [R791212], the Kd in test [1] turned out to be 125 ± 26 nM. For the same molecule, the “Pharmacological behaviour toward IP production (agonism / neutral antagonism / inverse agonism)” value in test [2] is recorded as “neutral antagonism”.

Take `CS(=O)(=O)SCCN` [MTSEA^+, methanethiosulphonate ethyl-ammonium]: in test [3], the “% inhibition of 125I-[Sar1,Ile8]AngII binding by MTSEA+ reagent” value is on record as “approximately 30%”.
